Source: patent US9556183B2, “Substituted pyrazolylpyrazole derivative and use of same as herbicide” (KYOYU AGRI CO., LTD., priority 2013, dated 2017)

Experiments:
Format in all cases: in vivo
Echinochloa crus-galli = assay: Paddy herbicidal activity test; details: irrigated paddy pot, treated at 3.5 leaf stage of Echinochloa crus-galli, 30 days
Experimental: (§1) Rice paddy soil was filled into a 1/10000 are pot followed by the addition of suitable amounts of water and chemical fertilizer, kneading, seeding with Echinochloa crus-galli, Monochoria vaginalis and Scirpus juncoides and maintaining in an irrigated state at a water depth of 3 cm. Wettable powder of Target Compound (I) shown in Table 1 prepared in compliance with the preparation examples were diluted with a suitable amount of water, rice plants in the 2.0 leaf stage were transplanted during 3.5 leaf stage of Echinochloa crus-galli, and treated by dropping in chemical in the prescribed amount per are using a pipette. After treating for 30 days in a glass greenhouse at an average atmospheric temperature of 30° C., the herbicidal efficacy thereof was investigated. Evaluation of herbicidal efficacy was carried out by comparing growth inhibition rate (%) with an untreated group, while evaluation of phytotoxicity was carried out by comparing growth inhibition rate (%) with the state of a complete eradication group, and were evaluated at 11 levels indicated below. [table]

Scirpus juncoides = assay: Paddy herbicidal activity test; details: irrigated paddy pot, 30 days
Experimental: as §1

Monochoria vaginalis = assay: Paddy herbicidal activity test; details: irrigated paddy pot, 30 days
Experimental: as §1

Rice plants = assay: Paddy herbicidal activity test, phytotoxicity to transplanted rice; details: rice transplanted at 2.0 leaf stage, 30 days
Experimental: as §1

## N#Cc1cnn(-c2nn3c(c2Cl)CCC3)c1NCC1CC1 [Compound 5]
Echinochloa crus-galli; 1g a.i./10a
  herbicidal efficacy (growth inhibition rate level) Echinochloa crus-galli: 9 (9: 90% to less than 100%)
Echinochloa crus-galli; 5g a.i./10a
  herbicidal efficacy (growth inhibition rate level) Echinochloa crus-galli: 10 (10: 100%)
Scirpus juncoides; 1g a.i./10a
  herbicidal efficacy (growth inhibition rate level) Scirpus juncoides: 8 (8: 80% to less than 90%)
Scirpus juncoides; 5g a.i./10a
  herbicidal efficacy (growth inhibition rate level) Scirpus juncoides: 9 (9: 90% to less than 100%)
Monochoria vaginalis; 1g a.i./10a
  herbicidal efficacy (growth inhibition rate level) Monochoria vaginalis: 9 (9: 90% to less than 100%)
Monochoria vaginalis; 5g a.i./10a
  herbicidal efficacy (growth inhibition rate level) Monochoria vaginalis: 9 (9: 90% to less than 100%)
Rice plants; 1g a.i./10a
  phytotoxicity (growth inhibition rate level) Rice plants: 0 (0 (exponent): 0% to less than 10% (growth inhibition rate))
Rice plants; 5g a.i./10a
  phytotoxicity (growth inhibition rate level) Rice plants: 1 (1: 10% to less than 20%)

## O=[N+]([O-])c1cnn(-c2nn3c(c2Br)CCCC3)c1NCC1CC1 [Compound 158]
Echinochloa crus-galli; 1g a.i./10a
  herbicidal efficacy (growth inhibition rate level) Echinochloa crus-galli: 8 (8: 80% to less than 90%)
Echinochloa crus-galli; 5g a.i./10a
  herbicidal efficacy (growth inhibition rate level) Echinochloa crus-galli: 9 (9: 90% to less than 100%)
Scirpus juncoides; 1g a.i./10a
  herbicidal efficacy (growth inhibition rate level) Scirpus juncoides: 8 (8: 80% to less than 90%)
Scirpus juncoides; 5g a.i./10a
  herbicidal efficacy (growth inhibition rate level) Scirpus juncoides: 9 (9: 90% to less than 100%)
Monochoria vaginalis; 1g a.i./10a
  herbicidal efficacy (growth inhibition rate level) Monochoria vaginalis: 7 (7: 70% to less than 80%)
Monochoria vaginalis; 5g a.i./10a
  herbicidal efficacy (growth inhibition rate level) Monochoria vaginalis: 7 (7: 70% to less than 80%)
Rice plants; 1g a.i./10a
  phytotoxicity (growth inhibition rate level) Rice plants: 0 (0 (exponent): 0% to less than 10% (growth inhibition rate))
Rice plants; 5g a.i./10a
  phytotoxicity (growth inhibition rate level) Rice plants: 0 (0 (exponent): 0% to less than 10% (growth inhibition rate))

## CC(Nc1c(C#N)cnn1-c1nn2c(c1Cl)CCCC2)C1(C)CC1 (stereo not shown) [Compound 8]
Echinochloa crus-galli; 1g a.i./10a
  herbicidal efficacy (growth inhibition rate level) Echinochloa crus-galli: 9 (9: 90% to less than 100%)
Echinochloa crus-galli; 5g a.i./10a
  herbicidal efficacy (growth inhibition rate level) Echinochloa crus-galli: 9 (9: 90% to less than 100%)
Scirpus juncoides; 1g a.i./10a
  herbicidal efficacy (growth inhibition rate level) Scirpus juncoides: 7 (7: 70% to less than 80%)
Scirpus juncoides; 5g a.i./10a
  herbicidal efficacy (growth inhibition rate level) Scirpus juncoides: 8 (8: 80% to less than 90%)
Monochoria vaginalis; 1g a.i./10a
  herbicidal efficacy (growth inhibition rate level) Monochoria vaginalis: 7 (7: 70% to less than 80%)
Monochoria vaginalis; 5g a.i./10a
  herbicidal efficacy (growth inhibition rate level) Monochoria vaginalis: 7 (7: 70% to less than 80%)
Rice plants; 1g a.i./10a
  phytotoxicity (growth inhibition rate level) Rice plants: 0 (0 (exponent): 0% to less than 10% (growth inhibition rate))
Rice plants; 5g a.i./10a
  phytotoxicity (growth inhibition rate level) Rice plants: 0 (0 (exponent): 0% to less than 10% (growth inhibition rate))

## N#Cc1cnn(-c2nn3c(c2Cl)CCCC3)c1N(CC1CC1)C(=O)C(F)(F)C(F)(F)F [Compound 3]
Echinochloa crus-galli; 1g a.i./10a
  herbicidal efficacy (growth inhibition rate level) Echinochloa crus-galli: 8 (8: 80% to less than 90%)
Echinochloa crus-galli; 5g a.i./10a
  herbicidal efficacy (growth inhibition rate level) Echinochloa crus-galli: 8 (8: 80% to less than 90%)
Scirpus juncoides; 1g a.i./10a
  herbicidal efficacy (growth inhibition rate level) Scirpus juncoides: 7 (7: 70% to less than 80%)
Scirpus juncoides; 5g a.i./10a
  herbicidal efficacy (growth inhibition rate level) Scirpus juncoides: 8 (8: 80% to less than 90%)
Monochoria vaginalis; 1g a.i./10a
  herbicidal efficacy (growth inhibition rate level) Monochoria vaginalis: 7 (7: 70% to less than 80%)
Monochoria vaginalis; 5g a.i./10a
  herbicidal efficacy (growth inhibition rate level) Monochoria vaginalis: 7 (7: 70% to less than 80%)
Rice plants; 1g a.i./10a
  phytotoxicity (growth inhibition rate level) Rice plants: 0 (0 (exponent): 0% to less than 10% (growth inhibition rate))
Rice plants; 5g a.i./10a
  phytotoxicity (growth inhibition rate level) Rice plants: 0 (0 (exponent): 0% to less than 10% (growth inhibition rate))

## O=[N+]([O-])c1cnn(-c2nn3c(c2Cl)CCCC3)c1NCC1CC1 [Compound 114]
Echinochloa crus-galli; 1g a.i./10a
  herbicidal efficacy (growth inhibition rate level) Echinochloa crus-galli: 9 (9: 90% to less than 100%)
Echinochloa crus-galli; 5g a.i./10a
  herbicidal efficacy (growth inhibition rate level) Echinochloa crus-galli: 9 (9: 90% to less than 100%)
Scirpus juncoides; 1g a.i./10a
  herbicidal efficacy (growth inhibition rate level) Scirpus juncoides: 8 (8: 80% to less than 90%)
Scirpus juncoides; 5g a.i./10a
  herbicidal efficacy (growth inhibition rate level) Scirpus juncoides: 9 (9: 90% to less than 100%)
Monochoria vaginalis; 1g a.i./10a
  herbicidal efficacy (growth inhibition rate level) Monochoria vaginalis: 7 (7: 70% to less than 80%)
Monochoria vaginalis; 5g a.i./10a
  herbicidal efficacy (growth inhibition rate level) Monochoria vaginalis: 8 (8: 80% to less than 90%)
Rice plants; 1g a.i./10a
  phytotoxicity (growth inhibition rate level) Rice plants: 0 (0 (exponent): 0% to less than 10% (growth inhibition rate))
Rice plants; 5g a.i./10a
  phytotoxicity (growth inhibition rate level) Rice plants: 0 (0 (exponent): 0% to less than 10% (growth inhibition rate))

## CC(C1CC1)N(C(=O)C(F)(F)F)c1c(C#N)cnn1-c1nn2c(c1Cl)CCCC2 (stereo not shown) [Compound 14]
Echinochloa crus-galli; 1g a.i./10a
  herbicidal efficacy (growth inhibition rate level) Echinochloa crus-galli: 8 (8: 80% to less than 90%)
Echinochloa crus-galli; 5g a.i./10a
  herbicidal efficacy (growth inhibition rate level) Echinochloa crus-galli: 9 (9: 90% to less than 100%)
Scirpus juncoides; 1g a.i./10a
  herbicidal efficacy (growth inhibition rate level) Scirpus juncoides: 7 (7: 70% to less than 80%)
Scirpus juncoides; 5g a.i./10a
  herbicidal efficacy (growth inhibition rate level) Scirpus juncoides: 8 (8: 80% to less than 90%)
Monochoria vaginalis; 1g a.i./10a
  herbicidal efficacy (growth inhibition rate level) Monochoria vaginalis: 7 (7: 70% to less than 80%)
Monochoria vaginalis; 5g a.i./10a
  herbicidal efficacy (growth inhibition rate level) Monochoria vaginalis: 7 (7: 70% to less than 80%)
Rice plants; 1g a.i./10a
  phytotoxicity (growth inhibition rate level) Rice plants: 0 (0 (exponent): 0% to less than 10% (growth inhibition rate))
Rice plants; 5g a.i./10a
  phytotoxicity (growth inhibition rate level) Rice plants: 0 (0 (exponent): 0% to less than 10% (growth inhibition rate))

## O=C(N(CC1CC1)c1c([N+](=O)[O-])cnn1-c1nn2c(c1Br)CCCC2)C(F)(F)F [Compound 159]
Echinochloa crus-galli; 1g a.i./10a
  herbicidal efficacy (growth inhibition rate level) Echinochloa crus-galli: 8 (8: 80% to less than 90%)
Echinochloa crus-galli; 5g a.i./10a
  herbicidal efficacy (growth inhibition rate level) Echinochloa crus-galli: 9 (9: 90% to less than 100%)
Scirpus juncoides; 1g a.i./10a
  herbicidal efficacy (growth inhibition rate level) Scirpus juncoides: 7 (7: 70% to less than 80%)
Scirpus juncoides; 5g a.i./10a
  herbicidal efficacy (growth inhibition rate level) Scirpus juncoides: 8 (8: 80% to less than 90%)
Monochoria vaginalis; 1g a.i./10a
  herbicidal efficacy (growth inhibition rate level) Monochoria vaginalis: 7 (7: 70% to less than 80%)
Monochoria vaginalis; 5g a.i./10a
  herbicidal efficacy (growth inhibition rate level) Monochoria vaginalis: 8 (8: 80% to less than 90%)
Rice plants; 1g a.i./10a
  phytotoxicity (growth inhibition rate level) Rice plants: 0 (0 (exponent): 0% to less than 10% (growth inhibition rate))
Rice plants; 5g a.i./10a
  phytotoxicity (growth inhibition rate level) Rice plants: 0 (0 (exponent): 0% to less than 10% (growth inhibition rate))

## O=C(N(CC1CC1)c1c([N+](=O)[O-])cnn1-c1nn2c(c1Cl)CCCC2)C(F)(F)F [Compound 115]
Echinochloa crus-galli; 1g a.i./10a
  herbicidal efficacy (growth inhibition rate level) Echinochloa crus-galli: 8 (8: 80% to less than 90%)
Echinochloa crus-galli; 5g a.i./10a
  herbicidal efficacy (growth inhibition rate level) Echinochloa crus-galli: 9 (9: 90% to less than 100%)
Scirpus juncoides; 1g a.i./10a
  herbicidal efficacy (growth inhibition rate level) Scirpus juncoides: 9 (9: 90% to less than 100%)
Scirpus juncoides; 5g a.i./10a
  herbicidal efficacy (growth inhibition rate level) Scirpus juncoides: 8 (8: 80% to less than 90%)
Monochoria vaginalis; 1g a.i./10a
  herbicidal efficacy (growth inhibition rate level) Monochoria vaginalis: 8 (8: 80% to less than 90%)
Monochoria vaginalis; 5g a.i./10a
  herbicidal efficacy (growth inhibition rate level) Monochoria vaginalis: 8 (8: 80% to less than 90%)
Rice plants; 1g a.i./10a
  phytotoxicity (growth inhibition rate level) Rice plants: 0 (0 (exponent): 0% to less than 10% (growth inhibition rate))
Rice plants; 5g a.i./10a
  phytotoxicity (growth inhibition rate level) Rice plants: 1 (1: 10% to less than 20%)

## N#Cc1cnn(-c2nn3c(c2Cl)CCC3)c1N(CC1CC1)C(=O)C(F)(F)F [Compound 6]
Echinochloa crus-galli; 1g a.i./10a
  herbicidal efficacy (growth inhibition rate level) Echinochloa crus-galli: 9 (9: 90% to less than 100%)
Echinochloa crus-galli; 5g a.i./10a
  herbicidal efficacy (growth inhibition rate level) Echinochloa crus-galli: 9 (9: 90% to less than 100%)
Scirpus juncoides; 1g a.i./10a
  herbicidal efficacy (growth inhibition rate level) Scirpus juncoides: 7 (7: 70% to less than 80%)
Scirpus juncoides; 5g a.i./10a
  herbicidal efficacy (growth inhibition rate level) Scirpus juncoides: 8 (8: 80% to less than 90%)
Monochoria vaginalis; 1g a.i./10a
  herbicidal efficacy (growth inhibition rate level) Monochoria vaginalis: 8 (8: 80% to less than 90%)
Monochoria vaginalis; 5g a.i./10a
  herbicidal efficacy (growth inhibition rate level) Monochoria vaginalis: 9 (9: 90% to less than 100%)
Rice plants; 1g a.i./10a
  phytotoxicity (growth inhibition rate level) Rice plants: 0 (0 (exponent): 0% to less than 10% (growth inhibition rate))
Rice plants; 5g a.i./10a
  phytotoxicity (growth inhibition rate level) Rice plants: 0 (0 (exponent): 0% to less than 10% (growth inhibition rate))

## CC1CC1CN(C(=O)C(F)(F)F)c1c(C#N)cnn1-c1nn2c(c1Cl)CCCC2 (stereo not shown) [Compound 13]
Echinochloa crus-galli; 1g a.i./10a
  herbicidal efficacy (growth inhibition rate level) Echinochloa crus-galli: 9 (9: 90% to less than 100%)
Echinochloa crus-galli; 5g a.i./10a
  herbicidal efficacy (growth inhibition rate level) Echinochloa crus-galli: 9 (9: 90% to less than 100%)
Scirpus juncoides; 1g a.i./10a
  herbicidal efficacy (growth inhibition rate level) Scirpus juncoides: 8 (8: 80% to less than 90%)
Scirpus juncoides; 5g a.i./10a
  herbicidal efficacy (growth inhibition rate level) Scirpus juncoides: 8 (8: 80% to less than 90%)
Monochoria vaginalis; 1g a.i./10a
  herbicidal efficacy (growth inhibition rate level) Monochoria vaginalis: 8 (8: 80% to less than 90%)
Monochoria vaginalis; 5g a.i./10a
  herbicidal efficacy (growth inhibition rate level) Monochoria vaginalis: 8 (8: 80% to less than 90%)
Rice plants; 1g a.i./10a
  phytotoxicity (growth inhibition rate level) Rice plants: 0 (0 (exponent): 0% to less than 10% (growth inhibition rate))
Rice plants; 5g a.i./10a
  phytotoxicity (growth inhibition rate level) Rice plants: 1 (1: 10% to less than 20%)

## CC1(CNc2c(C#N)cnn2-c2nn3c(c2Cl)CCCC3)CC1 [Compound 4]
Echinochloa crus-galli; 1g a.i./10a
  herbicidal efficacy (growth inhibition rate level) Echinochloa crus-galli: 9 (9: 90% to less than 100%)
Echinochloa crus-galli; 5g a.i./10a
  herbicidal efficacy (growth inhibition rate level) Echinochloa crus-galli: 10 (10: 100%)
Scirpus juncoides; 1g a.i./10a
  herbicidal efficacy (growth inhibition rate level) Scirpus juncoides: 8 (8: 80% to less than 90%)
Scirpus juncoides; 5g a.i./10a
  herbicidal efficacy (growth inhibition rate level) Scirpus juncoides: 8 (8: 80% to less than 90%)
Monochoria vaginalis; 1g a.i./10a
  herbicidal efficacy (growth inhibition rate level) Monochoria vaginalis: 9 (9: 90% to less than 100%)
Monochoria vaginalis; 5g a.i./10a
  herbicidal efficacy (growth inhibition rate level) Monochoria vaginalis: 9 (9: 90% to less than 100%)
Rice plants; 1g a.i./10a
  phytotoxicity (growth inhibition rate level) Rice plants: 0 (0 (exponent): 0% to less than 10% (growth inhibition rate))
Rice plants; 5g a.i./10a
  phytotoxicity (growth inhibition rate level) Rice plants: 1 (1: 10% to less than 20%)
